This passage reports melting point results from patent US8129534B2, “Chemical compounds” (priority 2004, dated 2012).

As usually defined, the melting point is the temperature, or range, at which the solid turns liquid.

`O=C(Nc1ccnn1C1CCN(C/C=C/c2ccc(Cl)cc2)CC1)c1ccnc(Cl)c1` displayed a melting point of 69 to 70 °C. On to `O=C(Nc1cccnc1C1CCN(C/C=C/c2ccc(Cl)cc2)CC1)c1ccnc(Cl)c1`, for which the melting point was in the range of 78 to 80 °C. Under `O=C(Nc1cccnc1C1=CCN(C/C=C/c2ccc(Cl)cc2)CC1)c1ccnc(Cl)c1` stands 75 to 77 °C.
